The target of one test is T1, human PHD2 (PHD2181-417) (Homo sapiens, UniProt Q9GZT9).
T1 construct: Smt (SUMO) tag (cleaved yes); made in house; host or cells: E. coli BL21 (pBAD vector)
The test can be described thus: PHD enzymatic assay ([14C]-succinic acid production). The class given is biochemical. To be noted: PHD2181-417, HIF-1α peptide 10 μM, average of results; for IC50: read-out: Enzyme pIC50 (converted). Summed up:
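Activity measured as [14C]-succinic acid formed from [5-14C]-2-oxoglutarate over 10 minutes, with peptide substrate at 10 μM, in Tris-HCl pH 7.5 buffer containing catalase, DTT and ascorbate. Unreacted oxoglutarate removed by DNP derivatisation; supernatant beta-counted.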

A further test deals with Hep-3B cells. As to the kind of experiment: Cellular assay: erythropoietin secretion in Hep-3B cells. The class given is cell-based, human. To be noted: 100 μM compound, 24 hours, percent of EPO secretion relative to assay control compound 7-[(4-Chloro-phenyl)-(5-methyl-isoxazol-3-ylamino)-methyl]-quinolin-8-ol; for Emax at 100 µM: Homo sapiens, Hep3B, read-out: Cellular % EPO Stimulation. Summed up:
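Hep-3B cells in DMEM with 10% FBS, treated 24 h after plating with compounds at 100 μM final for a further 24 h. Secreted EPO in supernatant measured by MSD electrochemiluminescence sandwich immunoassay with anti-EPO detection antibody.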

T1 sequence (Q9GZT9 181-417): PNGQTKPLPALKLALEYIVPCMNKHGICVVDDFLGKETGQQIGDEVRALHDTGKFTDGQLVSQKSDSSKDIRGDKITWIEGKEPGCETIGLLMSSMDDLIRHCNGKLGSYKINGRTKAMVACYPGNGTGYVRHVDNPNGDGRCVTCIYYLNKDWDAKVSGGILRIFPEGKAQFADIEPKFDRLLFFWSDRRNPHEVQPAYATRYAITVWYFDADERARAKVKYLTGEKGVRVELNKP

Take `O=C(O)c1cnn(-c2nc3ccc(N4CCCC4)cc3c(=O)[nH]2)c1` [Example 123, 1-(4-Oxo-6-pyrrolidin-1-yl-3,4-dihydro-quinazolin-2-yl)-1H-pyrazole-4-carboxylic acid]: the IC50 at human PHD2 (PHD2181-417) was 39.8 nM. For the same compound, the Emax at 100 µM in the test with Hep-3B cells is 17%.

Turning to `O=C(O)c1cnn(-c2nc3ccc(-c4ccccc4)cc3c(=O)[nH]2)c1` [Example 106, 1-(4-oxo-6-phenyl-3,4-dihydro-quinazolin-2-yl)-1H-pyrazole-4-carboxylic acid], the IC50 at human PHD2 (PHD2181-417) was 31.6 nM. The Emax at 100 µM in the test with Hep-3B cells amounted to 129%.

Turning to `O=C(O)c1cnn(-c2nc3cc(F)c(Oc4ccc5c(c4)CCC5)cc3c(=O)[nH]2)c1` [Example 58, 1-[7-Fluoro-6-(indan-5-yloxy)-4-oxo-3,4-dihydro-quinazolin-2-yl]-1H-pyrazole-4-carboxylic acid], on human PHD2 (PHD2181-417), the IC50 was 31.6 nM. The Emax at 100 µM in the test with Hep-3B cells came to 62%.

On to `N#Cc1ccccc1CNc1ccc2nc(-n3cc(C(=O)O)cn3)[nH]c(=O)c2c1` [Example 177, 1-[6-(2-Cyano-benzylamino)-4-oxo-3,4-dihydro-quinazolin-2-yl]-1H-pyrazole-4-carboxylic acid], for which the IC50 at human PHD2 (PHD2181-417) was 50.1 nM. Further, in the test on Hep-3B cells, the Emax at 100 µM worked out at 13%.

For the compound `COc1ccc2nc(-n3cc(C(=O)O)cn3)[nH]c(=O)c2c1` [Example 122, 1-(6-Methoxy-4-oxo-3,4-dihydro-quinazolin-2-yl)-1H-pyrazole-4-carboxylic acid], the IC50 at human PHD2 (PHD2181-417) was 25.1 nM. Moreover, in the test on Hep-3B cells, the Emax at 100 µM was 16%.

On to `CC(C)Oc1ccc2nc(-n3cc(C(=O)O)cn3)[nH]c(=O)c2c1` [Example 104, 1-(6-isopropoxy-4-oxo-3,4-dihydro-quinazolin-2-yl)-1H-pyrazole-4-carboxylic acid], for which the IC50 at human PHD2 (PHD2181-417) is 31.6 nM. In the test on Hep-3B cells, the Emax at 100 µM stood at 75%.

With `O=C(O)c1cnn(-c2nc3ccc(Oc4cccc(Cl)c4Cl)cc3c(=O)[nH]2)c1` [Example 60, 1-[6-(2,3-dichloro-phenoxy)-4-oxo-3,4-dihydro-quinazolin-2-yl]-1H-pyrazole-4-carboxylic acid], the IC50 at human PHD2 (PHD2181-417) is 31.6 nM. The Emax at 100 µM in the test with Hep-3B cells turned out to be 70%.

For `NC(CO)(CO)CO.O=C(O)c1cnn(-c2nc3cc(C4CCOCC4)ccc3c(=O)[nH]2)c1` [Example 67, 1-[4-Oxo-7-(tetrahydro-pyran-4-yl)-3,4-dihydro-quinazolin-2-yl]-1H-pyrazole-4-carboxylic acid tris(hydroxymethyl)aminomethane salt], the “Enzyme pIC50” value at human PHD2 (PHD2181-417) is reported as 7.8. In the test on Hep-3B cells, the “Cellular % EPO Stimulation” value stood at 18%.

`O=C(O)c1cnn(-c2nc3cc(Cl)c(N4CCc5ccccc5C4)cc3c(=O)[nH]2)c1` [Example 84, 1-[7-Chloro-6-(3,4-dihydro-1H-isoquinolin-2-yl)-4-oxo-3,4-dihydro-quinazolin-2-yl]-1H-pyrazole-4-carboxylic acid]: the IC50 on human PHD2 (PHD2181-417) was 20 nM. Moreover, the Emax at 100 µM with Hep-3B cells was 101%.

Regarding `CC(C)(C)c1ccc2nc(-n3cc(C(=O)O)cn3)[nH]c(=O)c2c1` [Example 19, 1-(6-tert-Butyl-4-oxo-3,4-dihydro-quinazolin-2-yl)-1H-pyrazole-4-carboxylic acid], at human PHD2 (PHD2181-417), the IC50 is 39.8 nM. Also, the Emax at 100 µM in the test on Hep-3B cells is 45%.

`O=C(O)c1cnn(-c2nc3ccc(-c4ccccc4Cl)cc3c(=O)[nH]2)c1` [Example 192, 1-[6-(2-Chloro-phenyl)-4-oxo-3,4-dihydro-quinazolin-2-yl]-1H-pyrazole-4-carboxylic acid]: the IC50 at human PHD2 (PHD2181-417) is 31.6 nM. Also, the Emax at 100 µM with Hep-3B cells is 87%.

Turning to `CN(C)c1ccc2nc(-n3cc(C(=O)O)cn3)[nH]c(=O)c2c1` [Example 125, 1-(6-Dimethylamino-4-oxo-3,4-dihydro-quinazolin-2-yl)-1H-pyrazole-4-carboxylic acid], the IC50 on human PHD2 (PHD2181-417) was 50.1 nM. In addition, the Emax at 100 µM with Hep-3B cells was 19%.

In the case of `O=C(O)c1cnn(-c2nc3ccc([N+](=O)[O-])cc3c(=O)[nH]2)c1` [Example 164, 1-(6-Nitro-4-oxo-3,4-dihydro-quinazolin-2-yl)-1H-pyrazole-4-carboxylic acid], on human PHD2 (PHD2181-417), the IC50 was 25.1 nM. For the same compound, in the test with Hep-3B cells, the Emax at 100 µM stood at 17%.

Values taken from patent publication US8937078B2, “Quinazolinones as prolyl hydroxylase inhibitors” (Janssen Pharmaceutica NV, priority 2009, dated 2015).
